Reference: US5432200A, “Method for increasing urinary excretion of electrolytes” (priority 1993, dated 1995)
Structures can show the parent of a compound that is named as a salt.

What was measured:
[1] = cited from earlier work
[2] = Physiological effects: urinary composition in two patients, five phases of study (Example 8, Table 1); assay type: in vivo, human (patients); conditions: for Urinary Ca / Urinary pH / Urinary Oxalate / Urinary K / Urinary Mg / Urinary Na / Urinary Citrate: mean of two patients, tablets/d: KCl 7, K citrate 10, Mg citrate 2.5, K-Mg citrate 7; for Urinary pH: placebo 6.26; for Urinary Oxalate: placebo 27; for Urinary K: placebo 31; for Urinary Mg: placebo 64; for Urinary Na: placebo 95; for Urinary Citrate: placebo 498
[3] = Bioavailability of potassium, magnesium and citrate in normal subjects: cumulative increment in urinary excretion after single oral dose (Example 7); conditions: urine 24 hours
Description: (§1) The study was performed with three normal subjects.
(§2) The subject underwent three phases of study. […] Urine was collected at frequent intervals for 24 hours after oral ingestion of each salt (at 8 a.m.).
(§3) Potassium bioavailability from potassium magnesium citrate was compared with that of potassium citrate. At each time period, the difference in urinary potassium following ingestion of potassium magnesium citrate (containing 49 meq potassium) or potassium citrate (containing 50 meq potassium) from that obtained at a corresponding time period following taking magnesium citrate (no potassium; therefore serving as control).
(§4) Magnesium bioavailability from potassium magnesium citrate was compared with that of magnesium citrate.
(§5) Citrate bioavailability from potassium magnesium citrate was compared with that of potassium citrate and magnesium citrate.

[4] = in vivo; cited from earlier work
[5] = system: hypercalciuric nephrolithiasis; conditions: cited from earlier work
[6] = human, in vivo, po
Description: as §1, §2, §3, §4, §5

nephrolithiasis = conditions: cited from earlier work
[7] = hypercalciuric patients with nephrolithiasis treated with thiazide

What does the source list for O=C(O)CC(O)(CC(=O)O)C(=O)O [magnesium citrate]?
magnesiuric and citraturic effect compared with magnesium oxide ([1]; magnesium salts provided in small divided doses): equivalent magnesiuric and citraturic effect as magnesium oxide; absorbability compared with magnesium oxide ([1]; vs magnesium oxide): more soluble and absorbable than magnesium oxide; Urinary Ca ([2]; listed as Magnesium Citrate): 137 mg/day; Urinary pH ([2]; listed as Magnesium Citrate): 6.13; Urinary Oxalate ([2]; listed as Magnesium Citrate): 23 mg/day; Urinary K ([2]; listed as Magnesium Citrate): 38 meq/d; Urinary Mg ([2]; listed as Magnesium Citrate): 113 mg/day; Urinary Na ([2]; listed as Magnesium Citrate): 82 meq/d; Urinary Citrate ([2]; listed as Magnesium Citrate): 718 mg/day; cumulative increment in urinary magnesium (magnesium bioavailability or absorption) ([3]; 24.5 meq Mg (potassium magnesium citrate) vs 25 meq Mg (magnesium citrate), potassium citrate phase as control, FIG. 3): equivalent magnesium bioavailability between the two preparations

Which side effects [4] does the source give for [Cl-].[K+] [potassium chloride] here?
The side effects was “arrhythmia and diarrhea”.

What about the “Urinary Ca” value [2] of the same molecule?
Its value is 103 mg/day.

And the “Urinary pH” value [2]?
The value was 5.84.

And the “Urinary Oxalate” value [2]?
The value was 27 mg/day.

What about the “Urinary K” value [2] of the same molecule?
The value was 90 meq/d.

And the “Urinary Mg” value [2]?
The value was 73 mg/day.

And the “Urinary Na” value [2]?
Its value is 81 meq/d.

And the “Urinary Citrate” value [2]?
Its value is 636 mg/day.

Which results are given for O=C(O)CC(O)(CC(=O)O)C(=O)O [potassium citrate]?
citrate excretion [5, 7]: augments citrate excretion; effect on thiazide-induced hypokalemia [5, 7]: averts the development of hypokalemia; recurrent stone formation ([5]; patients who have relapsed on thiazide therapy): prevents recurrent stone formation; effect on thiazide-induced magnesium depletion ([5]; potassium citrate therapy): does not avert thiazide-induced magnesium depletion; Urinary Ca ([2]; listed as Potassium Citrate): 86 mg/day; Urinary pH ([2]; listed as Potassium Citrate): 6.93; Urinary Oxalate ([2]; listed as Potassium Citrate): 27 mg/day; Urinary K ([2]; listed as Potassium Citrate): 80 meq/d; Urinary Mg ([2]; listed as Potassium Citrate): 69 mg/day; Urinary Na ([2]; listed as Potassium Citrate): 91 meq/d; Urinary Citrate ([2]; listed as Potassium Citrate): 821 mg/day; cumulative increment in urinary potassium (potassium bioavailability) ([3]; 49 meq K (potassium magnesium citrate) vs 50 meq K (potassium citrate), magnesium citrate phase as control, FIG. 2): equivalent between the two preparations

What does the source list for O=C([O-])CC(O)(CC(=O)[O-])C(=O)[O-].O=C([O-])CC(O)(CC(=O)[O-])C(=O)[O-].[K+].[K+].[K+].[K+].[Mg+2] [potassium magnesium citrate, tetrapotassium monomagnesium dicitrate]?
cumulative increment in urinary citrate (citrate bioavailability) [6]: much higher for potassium magnesium citrate than for the other two preparations; Urinary Ca [2]: 106 mg/day; Urinary pH [2]: 6.94; Urinary Oxalate [2]: 23 mg/day; Urinary K [2]: 73 meq/d; Urinary Mg [2]: 116 mg/day; Urinary Na [2]: 92 meq/d; Urinary Citrate [2]: 968 mg/day; urinary pH and citrate compared to magnesium citrate ([2]; vs magnesium citrate): higher values for urinary pH and citrate; urinary calcium and oxalate compared to placebo ([2]; vs placebo): lower values for urinary calcium and oxalate; urinary pH, magnesium, potassium and citrate compared to placebo ([2]; vs placebo): higher values for urinary pH, magnesium, potassium and citrate; urinary pH, magnesium and citrate compared to potassium chloride ([2]; vs potassium chloride): higher urinary pH, magnesium, and citrate; citrate and magnesium excretion compared to potassium citrate ([2]; vs potassium citrate): greater citrate excretion as well as enhanced magnesium excretion

With NS(=O)(=O)c1cc2c(cc1Cl)NCNS2(=O)=O [thiazide] as the molecule, how does the “potassium and magnesium depletion” value (nephrolithiasis; thiazide therapy, by provoking renal loss of potassium and magnesium) read?
The value was “may cause hypokalemia and magnesium depletion”.

And the relapse rate (nephrolithiasis; use of thiazide alone)?
Its relapse rate is 37.5-57.1%.
